Experimental data taken from publication PMC4363291 (The Journal of investigative dermatology, 2014).
Counter-ions that a name gives are not always drawn.

Assays:
Test in all cases: voltage-clamp of hemichannel currents in Xenopus oocytes
Type in all cases: cell-based
[1] = target: connexin26 (Cx26) hemichannel (Homo sapiens, UniProt P29033, A40V)
[2] = target: T1, connexin26 (Cx26) hemichannel (Homo sapiens, UniProt P29033, G45E)
[3] = target: connexin26 (Cx26) hemichannel (Homo sapiens, UniProt P29033, D50N)
[4] = target: connexin26 (Cx26) hemichannel (Homo sapiens, UniProt P29033, D50A)
[5] = target: T1, connexin26 (Cx26) hemichannel; remark: listed apart in the source

Row | Structure (SMILES) | % [1] | IC50 [2] [µM] | % [3] [% reduction at 30µM] | % [4] | % [5] [% reduction at 30µM]
1 | O[C@@H](c1cc(C(F)(F)F)nc2c(C(F)(F)F)cccc12)[C@H]1CCCCN1 (relative stereo) [MFQ, [R*,S*]-[2,8-Bis-trifluoromethyl-quinolin-4-yl]-piperidin-2-yl-methanolhydrochloride] | 50% or better suppression at 30µM | ~16 | 69±15 | 50% or better suppression at 30µM | 
2 | OC(c1ccccn1)c1cc(C(F)(F)F)nc2c(C(F)(F)F)cccc12 (stereo not drawn) [QU026, [2,8-Bis-trifluoromethyl-quinolin-4-yl]-pyridin-2-yl-methanol] |  |  | 73±11 |  | 59±13
